Experimental data taken from US8399484B2, “Combination therapy for treating HCV infection” (priority 2008, dated 2013).
Structures can show the parent of a compound that is named as a salt. Where two headings read alike, the source gives them in different places.

Assays:
[1] = tested on: R155K variants (genotype 1a NS3); assay: Drug sensitivity assay: HCV replicon shuttle vector with patient NS3 amplicons, luciferase, Huh-7.5 cells; type: cell-based; settings: Hepatitis C virus, Huh7.5, read-out: range of EC50 values
From the text: (§1) A bicistronic HCV replicon shuttle vector (pIT2) comprising a luciferase reporter gene and an adapted Con-1 NS3/NS5B region was modified to create two unique restriction sites (Mlu I and Spe I) at NS3 codons 11 and 225 which enabled the insertion of compatible NS3 amplicons isolated from HCV-infected patient plasma samples. The first-round PCR product synthesized from the patient plasma-purified RNA (also used for generating fragments for population- and clonal-based sequencing) was used to amplify a 0.65 kbp fragment with primer pairs that respectively contain the unique MluI and SpeI restriction sites for insertion into the shuttle vector. Amplicons were ligated in the pIT2 shuttle vector and reconstituted plasmid DNA was used to generate HCV subgenomic replicon RNA transcripts (T7 RIBOMAX™ kit, Promega). […] At the end of the incubation, luciferase activity was measured with the BRIGHT-GLO™ substrate as the luminescence quantified (CPS) in each well of the culture plate reflected the amount of HCV RNA replication. […] The EC50 of mutant NS3 were compared to the baseline EC50 and used to generate fold-change values.

[2] = tested on: D168 variants (genotype 1b NS3); assay: as above; type: cell-based; settings: Hepatitis C virus, Huh7.5, read-out: EC50 values
From the text: as §1

[3] = tested on: chronic hepatitis C genotype-1 infection; settings: for Virologic rebound during the first 28 days of treatment: 240 mg qd + PegIFN/RBV
Description: (§2) The solvent was also used as the placebo.
A multiple rising dose study evaluated the safety and antiviral activity in P+R treatment-experienced patients (pts) with chronic hepatitis C genotype-1 infection for 28 days as combination therapy with P+R.
All patients were monitored for safety and tolerability of study drugs. The primary endpoint was a ≧2 log 10 reduction in HCV viral load (VL) from baseline at any time up to Day 28. Plasma HCV-RNA levels were measured using the Roche COBAS® TaqMan® assay (LLOQ 25 IU/mL). The treatment experienced patients in this study included P+R null responders and partial responders. After day 28, at the discretion of the investigator, patients could continue to receive standard of care treatment, i.e., P+R.

[4] = tested on: chronic HCV genotype-1 infection; settings: for VL rebound during treatment in the first 14 days of monotherapy: all dose groups
Description: as §2
A multiple rising dose study evaluated safety and antiviral activity in treatment-naive patients (pts) with chronic HCV genotype-1 infection as monotherapy for 14 days followed by triple combination therapy with P+R for an additional 14 days.
Plasma HCV-RNA levels were measured with Roche COBAS® TaqMan® assay (LLOQ 25 IU/m L). After day 28, at the discretion of the investigator, patients could continue to receive standard of care treatment, i.e., P+R.

## C=C[C@@H]1C[C@]1(NC(=O)[C@@H]1C[C@H](Oc2cc(-c3csc(NC(=O)C(C)C)n3)nc3c(Br)c(OC)ccc23)CN1C(=O)[C@@H](NC(=O)OC1CCCC1)C(C)(C)C)C(=O)O [Compound (1) sodium salt]
[1]
  EC50: […]
[2]
  EC50: […]
[3]; 48 mg qd + PegIFN/RBV
  Virologic rebound during the first 28 days of treatment (patients): 2/6
[3]; 120 mg qd + PegIFN/RBV
  Virologic rebound during the first 28 days of treatment (patients): 1/7
[3]; 240 mg qd + P+R
  pts with VL<25 IU/mL at Day 28: ⅚
[3]
  Virologic rebound during the first 28 days of treatment: no rebound
[3]; listed as BI 201335
  Virologic rebound during the first 28 days of treatment: No rebound
[3]; all pts, + P+R
  VL decline achieved with triple combination therapy: > 2 log 10
[3]; combination with P+R, AE anxiety
  Discontinuation of treatment due to an AE: One subject discontinued
[3]; sixth pt of the 240 mg qd cohort
  VL at next visit, Day 42: < 25 IU/ml
[4]
  VL rebound during treatment in the first 14 days of monotherapy: majority of patients
[4]; listed as Compound (1) (sodium salt)
  VL rebound during treatment in the first 14 days of monotherapy: majority of the patients
[4]; all pts on active except 1 pt in the 20 mg cohort
  VL decline achieved during the monotherapy period: > 2 log 10
[4]; during monotherapy
  Discontinuation of treatment due to adverse events: No pts discontinued
[4]; monotherapy, typical
  Time of maximal decline of VL after starting treatment: 2 to 4 days
